# In publication PMC10726441, “Discovery of Tumor-Targeted 6-Methyl Substituted Pemetrexed and Related Antifolates with Selective Loss of RFC Transport” (ACS Medicinal Chemistry Letters, 2023):
# Columns and labels:
# Type in all cases: cell-based, Chinese hamster
# [1] = test system: MTXRIIOuaR2-4 CHO cells (R2; RFC-, PCFT-, and FR-null); test: Cell proliferation assay, transporter-null R2 CHO cells; conditions: Cricetulus griseus, 96 h, 0-1000 nM, mean (standard error), 3-5 experiments
# From the text: (§1) To assess the impact of 6-methyl substitutions on the bicyclic scaffolds of the pyrrolo[2,3-d]pyrimidine antifolates 1–4 on RFC transport vis-à-vis PCFT, FRα, and FRβ, we used a unique biological readout for transport activity. This involved proliferation assays with isogenic Chinese hamster ovary (CHO) sublines derived from RFC-, FR-, and PCFT-null MTXRIIOua^R2–4 CHO cells[39],[40] engineered to express the human FRα (RT16),[25] FRβ (D4),[25] RFC (PC43–10),[41] or PCFT (R2/PCFT4).[26],[42] As these CHO cell lines are genetically identical except for their folate transporters, differences in inhibition of cell proliferation by specific cytotoxic antifolates directly reflect transporter specificities.[19],[23]−[31],[42] […]
# (§2) Reagents for biological studies. Leucovorin [(6R,S) 5-formyl tetrahydrofolate] and methotrexate (MTX) was provided by the Drug Development Branch, National Cancer Institute, Bethesda, MD. Other chemicals were obtained from commercial sources in the highest available purities. Pemetrexed (PMX; 1) [N-{4-[2- (2-amino-3,4-dihydro-4-oxo-7H-pyrrolo[2,3-d]pyrimidin-5-yl)ethyl]benzoyl-L-glutamic acid] (Alimta) was purchased from LC Laboratories (Woburn, MA). The syntheses of compounds 2 and 3 were previously described.7, 8 Additional chemicals were purchased from commercial sources in the highest available purities.
# (§3) Cell Culture. The reduced folate carrier (RFC), proton-coupled folate transporter (SLC46A1; PCFT) and folate receptor (FR) α- and β-null Chinese hamster ovary (CHO) cell line MTXRIIOuaR2-49 was a gift from Dr. Wayne Flintoff (University of Western Ontario, London, ON). Four sublines were derived from the R2 subline by transfection with either RFC, PCFT, FRα, or FRβ, giving rise to PC43-10 (expresses human RFC), 10 R2/PCFT4 (expresses human PCFT),11 RT16 (expresses human FRα), 12 and D4 (expresses FRβ) cells. 12 Isogenic CHO sublines were routinely cultured in α-minimal essential medium (α-MEM) supplemented with 100 units/mL penicillin/100 μg/mL streptomycin, 2 mM L-glutamine and 10% bovine calf serum (Sigma-Aldrich). Transfected sublines of R2 cells were cultured in the presence of 1.5 mg/ml G418. […]
# (§4) mM L-glutamine. Cell lines were tested for Mycoplasma by PCR using a Mycloplasma testing kit (Venor™ GeM Mycoplasma Detection Kit, Sigma). Frozen stocks were generated from authenticated Mycoplasma-free cultures.
# (§5) For cell proliferation assays, CHO, KB, NCI-IGROV1 and IOSE 7576 cells were plated in 96-well dishes at densities ranging from 2500-5000 cells/well in 200 μL media and treated with a range of inhibitors spanning 0-1000 nM. Experiments with RT16, D4, IGROV1, IOSE 7576 and KB cells used folate-free RPMI 1640 (FF RPMI) media with 10% dialyzed fetal bovine serum and 100 units/mL penicillin/100 μg/mL streptomycin, supplemented with 2 nM leucovorin and 2 mM L-glutamine. FR-mediated drug uptake was assessed in parallel incubations including 200 nM folic acid. For R2/PCFT4, PC43-10 and R2 CHO cells, the medium was FF-RPMI supplemented with 10% dialyzed fetal bovine serum, 100 units/mL penicillin/100 μg/mL streptomycin, 25 nM leucovorin and 2 mM L-glutamine.
# (§6) Cells were treated over a 96 h period at 37° C with 5% CO2 and relative cell numbers quantified using the CellTiter-blue cell viability assay (Promega, Madison, WI) and a fluorescence plate reader. Raw data were exported to Excel for analysis and the results were plotted using Graphpad Prism 6.0. Determinations of IC50s were made […]
# (§7) assays have been previously described.7, 8, 11, 12, 15-20
# (§8) Using KB cells, additional proliferation assays were performed with metabolite protection in folate- and glycine-free RPMI1640 with 10% dialyzed fetal bovine serum, 2 mM L-glutamine and antibiotics with 2 nM leucovorin to identify the targeted pathway and enzyme(s). 7, 8, 11, 12, 15-20 Inhibitory effects of the novel analogs on de novo thymidylate biosynthesis and de novo purine nucleotide biosynthesis were tested by incubating drugs with thymidine (10 μM) and adenosine (60 μM), respectively. […]
# RT16 (FRα) CHO cells = test: Cell proliferation assay, RT16 CHO cells expressing human FRα; conditions: for IC50: Cricetulus griseus, RT16, 96 h, 0-1000 nM, mean (standard error), 3-5 experiments; for RFC/FRα Selectivity ratios: ratio of IC50 PC43-10 (RFC) to IC50 RT16 (FRα)
# From the text: as §1, §2, §3, §4, §5, §6, §7, §8
# [2] = test system: R2/PCFT4 (PCFT) CHO cells; test: Cell proliferation assay, R2/PCFT4 CHO cells expressing human PCFT; conditions: for IC50: Cricetulus griseus, R2/PCFT4, 96 h, 0-1000 nM, mean (standard error), 3-5 experiments; for RFC/PCFT Selectivity ratios: ratio of IC50 PC43-10 (RFC) to IC50 R2/PCFT4 (PCFT)
# From the text: as §1, §2, §3, §4, §5, §6, §7, §8
SMILES,IC50 [1] [nM],IC50 (RT16 (FRα) CHO cells) [nM],IC50 [2] [nM],RFC/PCFT Selectivity ratios [2],RFC/FRα Selectivity ratios (RT16 (FRα) CHO cells)
"Nc1nc2[nH]cc(CCc3ccc(C(=O)N[C@@H](CCC(=O)O)C(=O)O)cc3)c2c(=O)[nH]1 [Compound 1, reference compound]",> 1000,14,,,
Nc1nc2[nH]cc(CCCc3ccc(C(=O)N[C@@H](CCC(=O)O)C(=O)O)cc3)c2c(=O)[nH]1 [Compound 2],> 1000,47.9,,,
Nc1nc2[nH]cc(CCc3ccc(C(=O)N[C@@H](CCC(=O)O)C(=O)O)s3)c2c(=O)[nH]1 [Compound 3],> 1000,550,80.2,0.75,0.11
Nc1nc2[nH]cc(CCc3ccc(C(=O)N[C@@H](CCC(=O)O)C(=O)O)c(F)c3)c2c(=O)[nH]1 [Compound 4],> 1000,6.76,25.9,6.5,25
Cc1[nH]c2nc(N)[nH]c(=O)c2c1CCc1ccc(C(=O)N[C@@H](CCC(=O)O)C(=O)O)cc1 [Compound 5],> 1000,94.8,7.66,>130,>10.5
Cc1[nH]c2nc(N)[nH]c(=O)c2c1CCCc1ccc(C(=O)N[C@@H](CCC(=O)O)C(=O)O)cc1 [Compound 6],> 1000,63.8,64.7,>15.5,>15.7
Cc1[nH]c2nc(N)[nH]c(=O)c2c1CCc1ccc(C(=O)N[C@@H](CCC(=O)O)C(=O)O)s1 [Compound 7],> 1000,2.53,51.5,>19.4,>395
Cc1[nH]c2nc(N)[nH]c(=O)c2c1CCc1ccc(C(=O)N[C@@H](CCC(=O)O)C(=O)O)c(F)c1 [Compound 8],> 1000,100,> 1000,,>10
